Laboratory results reported in publication PMC7689250, “Synthetic Peptide Libraries Designed From a Minimal Alpha-Helical Domain of AS-48-Bacteriocin Homologs Exhibit Potent Antibacterial Activity” (Frontiers in Microbiology, 2020).
Like-named read-outs stand apart in the source and are kept apart here. Residues, ends and D or L forms follow the SMILES beside them.

How the values were obtained:
E. coli (BL21) = assay type: cell-based, Escherichia coli
Procedure: (§1) Peptides were screened against Escherichia coli (BL21), Streptococcus pyogenes (M1T1 5448, hereby referred to as M1), Pseudomonas aeruginosa (PAO1), and Staphylococcus aureus (USA300). Overnight bacterial cultures were grown in optimal media for each species: Luria-Bertani (LB) broth for E. coli, P. aeruginosa, and S. aureus, and Todd-Hewitt (TH) broth for S. pyogenes. Cultures were pelleted and re-suspended in Mueller-Hinton (MH) broth for peptide screens or minimal inhibitory concentration (MIC) assays, with 1 × 10^6 CFU/mL bacteria added per well ([Wiegand et al., 2008]). MICs for each parent peptide were identified against each bacterial strain as previously described ([Fields et al., 2018]). Members of each peptide library were screened against each bacterial strain at half of the MIC of the corresponding parent peptide to identify library members with increased antimicrobial activity relative to the parent peptide. […] Minimal bactericidal concentrations (MBCs) were determined following the respective MIC assays by plating aliquots from wells corresponding to each peptide concentration from the 96-well plate used for the MIC on species-appropriate agar. Plates were incubated at 37°C overnight, and MBCs were identified as the lowest concentrations of peptide at which no colonies were obtained. A Synergy H1 Microplate Reader (BioTek, Winooski, VT, United States) was used to determine the MICs and identify peptides with greater antimicrobial activity than the corresponding parent peptide by measuring OD 600 of the bacterial cultures in 96-well microtiter plates.

S. pyogenes (M1) = assay type: cell-based, Streptococcus pyogenes; conditions: for MBC: M1
Procedure: as §1

P. aeruginosa (PAO1) = assay type: cell-based, Pseudomonas aeruginosa; conditions: for MBC: PAO1; for MIC: PAO1, 16 h
Procedure: as §1

S. aureus (USA300) = assay type: cell-based, Staphylococcus aureus
Procedure: as §1

sheep erythrocytes = assay type: cell-based; conditions: red cells of sheep, 1 h
Procedure: To determine if peptide variants were hemolytic, fresh defibrinated whole sheep blood (Hardy Diagnostics) was washed three times in cold PBS, and washed blood was diluted 1:25 in PBS. Treatments were applied at a 1:10 ratio of sample:blood, where the sample was either 10% Triton, PBS, or a specific peptide concentration corresponding to concentrations used in the MIC assays. Treatments were incubated with the blood for 1 h at 37°C. Following incubation, samples were centrifuged at […] for 10 min at 4°C, and the absorbance of the supernatants at 450 nm was measured on the Synergy H1 Microplate Reader to measure the release of hemoglobin. Percent hemolysis was quantified by normalizing to the negative and positive controls.

Row | MIC (E. coli (BL21); BL21, 16 h) [µM] | MIC (S. pyogenes (M1); M1, 16 h) [µM] | MIC (P. aeruginosa (PAO1)) [µM] | MIC (S. aureus (USA300); USA300, 16 h) [µM] | MIC (S. pyogenes (M1); S. pyogenes M1) [µM] | MIC (E. coli (BL21); E. coli BL21) [µM] | MIC (S. pyogenes (M1); S. pyogenes M1, running text b43, unit printed nm) [µM] | MIC (S. aureus (USA300); USA300) [µM] | Structure (SMILES) | MBC (E. coli (BL21); BL21) [µM] | MBC (S. pyogenes (M1)) [µM] | MBC (P. aeruginosa (PAO1)) [µM] | MBC (S. aureus (USA300); USA300) [µM] | Percent Hemolysis (sheep erythrocytes) [%] | MBC (E. coli (BL21); E. coli BL21) [µM]
1 | 2 | 16 | 8 | 64 | – | – | – | – | CC[C@H](C)[C@H](NC(=O)[C@H](Cc1ccc(O)cc1)NC(=O)[C@H](CCCCN)NC(=O)[C@H](CCCCN)NC(=O)[C@H](CC(C)C)NC(=O)[C@H](CCC(=O)O)NC(=O)[C@H](CCCCN)NC(=O)[C@H](Cc1c[nH]c2ccccc12)NC(=O)[C@@H](NC(=O)[C@H](CCCNC(=N)N)NC(=O)[C@H](CCC(=O)O)NC(=O)[C@H](CO)NC(=O)CNC(=O)[C@H](C)N)[C@@H](C)CC)C(=O)N[C@@H](CCCCN)C(=O)N[C@@H](CCCCN)C(=O)NCC(=O)N[C@@H](CCCCN)C(=O)N[C@@H](CCCCN)C(=O)N[C@H](C(=O)N[C@H](C(=O)N[C@@H](CCCNC(=N)N)C(=O)N[C@@H](C)C(=O)N[C@@H](C)C(=O)N[C@@H](Cc1c[nH]c2ccccc12)C(=O)O)[C@@H](C)CC)C(C)C [Syn-enterocin-24] (H-AGSERIWKELKKYIKKGKKVIRAAW-OH; N-terminus and C-terminus assumed) | 2 | 16 | 16 | >128 | 10.5 | –
2 | 2 | 0.25 | 16 | 4 | – | – | – | – | CC[C@H](C)[C@H](NC(=O)[C@H](CCCCN)NC(=O)[C@H](CCCCN)NC(=O)CNC(=O)[C@H](CCC(=O)O)NC(=O)[C@H](CC(N)=O)NC(=O)[C@@H](NC(=O)[C@@H](NC(=O)[C@H](CCCCN)NC(=O)[C@H](CCCCN)NC(=O)[C@H](CC(C)C)NC(=O)[C@H](CCCNC(=N)N)NC(=O)[C@H](CC(N)=O)NC(=O)[C@H](Cc1ccccc1)NC(=O)[C@@H](NC(=O)[C@H](CCCCN)NC(=O)[C@H](CCC(=O)O)NC(=O)[C@@H](NC(=O)[C@H](Cc1c[nH]c2ccccc12)NC(=O)[C@H](C)N)[C@@H](C)O)[C@@H](C)CC)[C@@H](C)O)[C@@H](C)CC)C(=O)N[C@@H](C)C(=O)N[C@@H](CCCCN)C(=O)N[C@@H](CCCNC(=N)N)C(=O)N[C@@H](C)C(=O)N[C@@H](Cc1c[nH]c2ccccc12)C(=O)O [Syn-larvacin-40] (H-AWTEKIFNRLKKTINEGKKIAKRAW-OH; N-terminus and C-terminus assumed) | 2 | 4 | 16 | 4 | 17.5 | –
3 | 0.5 | 0.5 | 16 | 32 | – | – | – | – | CC[C@H](C)[C@H](NC(=O)[C@H](CCCCN)NC(=O)[C@H](CCCCN)NC(=O)[C@H](CCCCN)NC(=O)[C@H](CC(C)C)NC(=O)[C@H](Cc1ccccc1)NC(=O)[C@H](CCC(N)=O)NC(=O)[C@H](CCCNC(=N)N)NC(=O)[C@@H](NC(=O)[C@@H](NC(=O)[C@H](CCC(=O)O)NC(=O)[C@H](CCCCN)NC(=O)CNC(=O)[C@H](C)N)[C@@H](C)O)[C@@H](C)CC)C(=O)N[C@@H](CCC(N)=O)C(=O)N[C@@H](CCC(=O)O)C(=O)N[C@@H](Cc1c[nH]c2ccccc12)C(=O)N[C@@H](CCCCN)C(=O)N[C@@H](CCCCN)C(=O)N[C@@H](CCCNC(=N)N)C(=O)N[C@@H](C)C(=O)N[C@H](C(=O)N[C@H](C(=O)N[C@@H](C)C(=O)N[C@@H](Cc1c[nH]c2ccccc12)C(=O)O)[C@@H](C)CC)[C@@H](C)O [Syn-larvacin-44] (H-AGKETIRQFLKKKIQEWKKRATIAW-OH; N-terminus and C-terminus assumed) | 1 | 0.5 | 32 | 32 | 20.9 | –
4 | 4 | 0.25 | 16 | 64 | – | – | – | – | CC[C@H](C)[C@H](NC(=O)[C@H](CCCCN)NC(=O)[C@H](CCCCN)NC(=O)[C@H](CCCCN)NC(=O)[C@H](CC(C)C)NC(=O)[C@H](CCCNC(=N)N)NC(=O)[C@H](CCC(N)=O)NC(=O)[C@H](Cc1ccccc1)NC(=O)[C@@H](NC(=O)[C@@H](NC(=O)[C@H](CCC(=O)O)NC(=O)[C@H](CCCCN)NC(=O)CNC(=O)[C@H](C)N)[C@@H](C)O)[C@@H](C)CC)C(=O)N[C@@H](CCC(N)=O)C(=O)N[C@@H](CCC(=O)O)C(=O)N[C@@H](CCCCN)C(=O)NCC(=O)N[C@@H](CCCCN)C(=O)N[C@@H](CCCNC(=N)N)C(=O)N[C@@H](C)C(=O)N[C@H](C(=O)N[C@H](C(=O)N[C@@H](Cc1c[nH]c2ccccc12)C(=O)N[C@@H](Cc1c[nH]c2ccccc12)C(=O)O)[C@@H](C)CC)[C@@H](C)O [Syn-larvacin-67] (H-AGKETIFQRLKKKIQEKGKRATIWW-OH; N-terminus and C-terminus assumed) | 4 | 0.25 | 32 | 64 | 16.3 | –
5 | 2 | – | 32 | 16 | 0.125 | – | – | – | CC[C@H](C)[C@H](NC(=O)[C@H](CCCCN)NC(=O)[C@H](C)NC(=O)[C@H](CCCNC(=N)N)NC(=O)[C@H](CCCCN)NC(=O)CNC(=O)[C@H](CCCCN)NC(=O)[C@H](CCC(=O)O)NC(=O)[C@H](CCC(N)=O)NC(=O)[C@@H](NC(=O)[C@@H](NC(=O)[C@H](CCCCN)NC(=O)[C@H](CCCCN)NC(=O)[C@H](CC(C)C)NC(=O)[C@H](Cc1ccccc1)NC(=O)[C@H](CCC(N)=O)NC(=O)[C@H](CCCNC(=N)N)NC(=O)[C@@H](NC(=O)[C@@H](NC(=O)[C@H](CCC(=O)O)NC(=O)[C@H](CCCCN)NC(=O)CNC(=O)[C@H](C)N)[C@@H](C)O)[C@@H](C)CC)[C@@H](C)O)[C@@H](C)CC)C(=O)N[C@@H](Cc1c[nH]c2ccccc12)C(=O)N[C@@H](Cc1c[nH]c2ccccc12)C(=O)O [Syn-larvacin-69] (H-AGKETIRQFLKKTIQEKGKRAKIWW-OH; N-terminus and C-terminus assumed) | 16 | 0.5 | 32 | 16 | 12.5 | –
6 | – | – | 16 | <0.25 | 0.125 | 0.25 | 0.125 | 0.25 | CC[C@H](C)[C@H](NC(=O)[C@H](CCCCN)NC(=O)[C@H](CCCCN)NC(=O)CNC(=O)[C@H](CCC(=O)O)NC(=O)[C@H](CCC(N)=O)NC(=O)[C@@H](NC(=O)[C@@H](NC(=O)[C@H](CCCCN)NC(=O)[C@H](CCCCN)NC(=O)[C@H](CC(C)C)NC(=O)[C@H](CCCNC(=N)N)NC(=O)[C@H](CCC(N)=O)NC(=O)[C@H](Cc1ccccc1)NC(=O)[C@@H](NC(=O)[C@H](CCCCN)NC(=O)[C@H](CCC(=O)O)NC(=O)[C@@H](NC(=O)CNC(=O)[C@H](C)N)[C@@H](C)O)[C@@H](C)CC)[C@@H](C)O)[C@@H](C)CC)C(=O)N[C@@H](C)C(=O)N[C@@H](CCCCN)C(=O)N[C@@H](CCCNC(=N)N)C(=O)N[C@@H](Cc1c[nH]c2ccccc12)C(=O)N[C@@H](Cc1c[nH]c2ccccc12)C(=O)O [Syn-larvacin-71] (H-AGTEKIFQRLKKTIQEGKKIAKRWW-OH; N-terminus and C-terminus assumed) | – | 0.125 | 32 | <0.25 | 20.6 | 0.25
7 | 0.25 | – | 32 | >128 | 0.125 | – | – | – | CC[C@H](C)[C@H](NC(=O)[C@H](CCCCN)NC(=O)[C@H](CCCCN)NC(=O)CNC(=O)[C@H](CCC(=O)O)NC(=O)[C@H](CC(N)=O)NC(=O)[C@@H](NC(=O)[C@@H](NC(=O)[C@H](CCCCN)NC(=O)[C@H](CCCCN)NC(=O)[C@H](CC(C)C)NC(=O)[C@H](CCCNC(=N)N)NC(=O)[C@H](CC(N)=O)NC(=O)[C@H](Cc1ccccc1)NC(=O)[C@@H](NC(=O)[C@H](CCCCN)NC(=O)[C@H](CCC(=O)O)NC(=O)[C@@H](NC(=O)CNC(=O)[C@H](C)N)[C@@H](C)O)[C@@H](C)CC)[C@@H](C)O)[C@@H](C)CC)C(=O)N[C@@H](C)C(=O)N[C@@H](CCCCN)C(=O)N[C@@H](CCCNC(=N)N)C(=O)N[C@@H](Cc1c[nH]c2ccccc12)C(=O)N[C@@H](Cc1c[nH]c2ccccc12)C(=O)O [Syn-larvacin-72] (H-AGTEKIFNRLKKTINEGKKIAKRWW-OH; N-terminus and C-terminus assumed) | 0.25 | 2 | 64 | >128 | 26.3 | –
